# Data: ChEMBL document CHEMBL1158429, “Selective cytochrome P450 3A4 inhibitory activity of Amaryllidaceae alkaloids” (Bioorg Med Chem Lett, 2009)
# pKi: −log10 of the molar value.
# Molecular target: Cytochrome P450 3A4 (Homo sapiens, UniProt P08684)
# Experiment: Inhibition of human CYP3A4 assessed as biotransformation of 7-benzyloxyquinoline
# Type: ADME
# Conditions: for pKi: read-out: Ki; call rule not given here
# Chain of Cytochrome P450 3A4 (P08684 whole entry): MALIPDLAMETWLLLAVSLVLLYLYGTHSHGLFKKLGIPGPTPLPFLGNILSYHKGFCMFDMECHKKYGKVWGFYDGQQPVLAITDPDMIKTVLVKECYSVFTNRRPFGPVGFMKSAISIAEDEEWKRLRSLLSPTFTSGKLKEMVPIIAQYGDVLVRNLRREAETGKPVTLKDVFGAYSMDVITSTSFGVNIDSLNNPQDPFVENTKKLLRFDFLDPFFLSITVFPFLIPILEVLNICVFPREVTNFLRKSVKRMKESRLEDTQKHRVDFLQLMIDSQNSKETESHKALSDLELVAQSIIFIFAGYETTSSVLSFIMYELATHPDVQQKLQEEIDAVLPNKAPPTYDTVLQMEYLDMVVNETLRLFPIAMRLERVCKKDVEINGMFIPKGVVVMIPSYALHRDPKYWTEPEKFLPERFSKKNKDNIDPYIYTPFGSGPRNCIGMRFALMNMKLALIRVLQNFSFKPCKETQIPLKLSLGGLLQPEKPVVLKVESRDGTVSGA
pKi,Ki (read-out: pKi (converted)) [nM],Structure (SMILES),Ki
5.12,,CC(=O)O[C@H]1[C@H]2c3cc4c(cc3CN3CCC(=C[C@@H]1O)[C@H]23)OCO4,
4.96,,CC(=O)O[C@H]1[C@H]2c3cc4c(cc3CN3CCC(=C[C@@H]1OC(C)=O)[C@H]23)OCO4,
6.68,158,CC(=O)O[C@H]1[C@H]2c3cc4c(cc3CN3CCC(=C[C@@H]1O[Si](C)(C)C(C)(C)C)[C@H]23)OCO4,
,,O[C@H]1[C@H]2c3cc4c(cc3CN3CCC(=C[C@@H]1O)[C@H]23)OCO4 [LYCORINE],Not Active
,,O=C1N[C@H]2[C@H](O)[C@H](O)[C@@H](O)[C@H](O)[C@@H]2c2cc3c(c(O)c21)OCO3 [PANCRATISTATIN],Not Active

Structure (SMILES),pKi,Ki (read-out: pKi (converted)) [nM],Ki
CC(C)(C)[Si](C)(C)O[C@H]1C=C2CCN3Cc4cc5c(cc4[C@H]([C@@H]1O)[C@@H]23)OCO5,6.59,,
O=C1N[C@@H]2C(=C[C@H](O)[C@@H](O)[C@H]2O)c2cc3c(c(O)c21)OCO3 [NARCICLASINE],6.20,,
